Test results published in article PMC6941110, “Mutation of Aspartate 238 in FAD Synthase Isoform 6 Increases the Specific Activity by Weakening the FAD Binding” (International Journal of Molecular Sciences, 2019).
Read-outs that look alike come from different tables or passages of the source. Each block holds one molecule with its values, some of them ahead of it.

Key:
[1] = target: T1, hFADS6 (human FAD synthase isoform 6) (Homo sapiens, UniProt Q8NFF5); assay: stopped-flow flavin fluorescence, koff/kon; type: binding
T1 construct: gene FLAD1; 320-residue isoform 6, FADSy domain only, lacks N-terminal FADHy domain; monomer

[2] = target: T2, hFADS6 (human FAD synthase isoform 6) (Homo sapiens, UniProt Q8NFF5, D505A); assay: biochemical; set-up: Stopped-flow flavin fluorescence, FAD binding with 250 uM PPi; kon/koff from kobs1 versus flavin concentration, 25 °C, pH 7.0; settings: error at least 30%, with 250 uM PPi
T2 construct: gene FLAD1; 320-residue isoform 6, FADSy domain only, lacks N-terminal FADHy domain; monomer
Experimental: (§1) Pre-steady-state kinetic experiments were performed using stopped-flow spectroscopy on an Applied Photophysics SX17.MV spectrophotometer using the Pro-Data SX software (Applied Photophysics Ltd. Leatherhead, Surrey, UK). The fluorescence of flavins was measured in a continuous assay with an excitation wavelength of 445 nm, while the emission was recovered using a >530 nm cut-off filter and the [compound left out] was set to 350 V. Then, 100 nM hFADS6 samples were mixed with samples that contained increasing concentrations of FMN or FAD (which varied in the range 0.025–1 μM), in the absence and in the presence of saturating concentrations of their respective co-substrates ATP or PPi (250 µM). All the indicated concentrations are final ones in the stopped-flow observation cell. Measurements were carried out at 25 °C in 50 mM HEPES/NaOH, 10 mM MgCl2, pH 7.0, 5 mM β-mercaptoethanol. At least three reproducible kinetic traces of changes in fluorescence were recorded for each condition and fitted to exponential equations (usually one or two exponentials were used) (2) y=∑Aie^−kobs,it where Ai and kobs,i represent the amplitude and the observed rate constant, respectively, for each of the processes (i) that contribute to the overall time-dependent fluorescence change for each experimental condition. […] When similarly evaluating the reverse reaction, kinetic traces for both WT and the D238A mutant show an initial fluorescence exponential decay of small amplitude that is followed by a linear increase of the signal (Figure 8b). We again deduce the kinetics for binding of FAD from the exponential decay, while rates for the subsequent linear fluorescence increase relate well to steady-state kinetic parameters for the transformation of FAD into FMN. Although the small amplitudes for FAD binding make it difficult to accurately determine kobs values, both parameters show a dependence on the substrate concentration (Supplementary Figure S3a,b). […] Normalized kinetic traces for the flavin fluorescence evolution upon mixing the protein with substrates for the (a) forward (ATP + FMN) and (b) reverse (PPi + FAD) reactions. Traces for WT and D238A hFADS are shown in colored grey and red scales as a function of the flavin given concentrations. Normalized signals regarding the fluorescence of the forward reaction at maximum FMN concentration are shown. Kinetic traces were obtained at 25 °C in mixtures containing 100 nM of protein and 250 µM of either ATP (a) or PPi (b) in 50 mM HEPES/NaOH, 10 mM MgCl2, pH 7.0, 5 mM β-mercaptoethanol. All concentrations are final after mixing.

[3] = target: T1, hFADS6 (human FAD synthase isoform 6); assay: biochemical; set-up: Stopped-flow flavin fluorescence, FAD binding with 250 uM PPi; kon/koff from kobs1 versus flavin concentration, 25 °C, pH 7.0; settings: with 250 uM PPi
Experimental: as §1

[4] = target: T2, hFADS6 (human FAD synthase isoform 6); assay: stopped-flow flavin fluorescence, koff/kon; type: binding
Description: stopped-flow flavin fluorescence, koff/kon on hFADS6 (human FAD synthase isoform 6) | obtained values are again indicative of the mutant binding FAD slower and weaker than the WT

[5] = target: T2, hFADS6 (human FAD synthase isoform 6); assay: biochemical; set-up: Stopped-flow flavin fluorescence, FMN binding with 250 uM ATP; kon/koff from kobs1 versus flavin concentration, 25 °C, pH 7.0; settings: error at least 30%, with 250 uM ATP
Experimental: (§2) Pre-steady-state kinetic experiments were performed using stopped-flow spectroscopy on an Applied Photophysics SX17.MV spectrophotometer using the Pro-Data SX software (Applied Photophysics Ltd. Leatherhead, Surrey, UK). The fluorescence of flavins was measured in a continuous assay with an excitation wavelength of 445 nm, while the emission was recovered using a >530 nm cut-off filter and the [compound left out] was set to 350 V. Then, 100 nM hFADS6 samples were mixed with samples that contained increasing concentrations of FMN or FAD (which varied in the range 0.025–1 μM), in the absence and in the presence of saturating concentrations of their respective co-substrates ATP or PPi (250 µM). All the indicated concentrations are final ones in the stopped-flow observation cell. Measurements were carried out at 25 °C in 50 mM HEPES/NaOH, 10 mM MgCl2, pH 7.0, 5 mM β-mercaptoethanol. At least three reproducible kinetic traces of changes in fluorescence were recorded for each condition and fitted to exponential equations (usually one or two exponentials were used) (2) y=∑Aie^−kobs,it where Ai and kobs,i represent the amplitude and the observed rate constant, respectively, for each of the processes (i) that contribute to the overall time-dependent fluorescence change for each experimental condition. […] In mixtures containing substrates of the forward reaction, ATP and FMN, the relevant decrease in the flavin fluorescence is indicative of internalization of the isoalloxazine or FMN transformation into FAD. These observations also agree with ATP binding to the protein prior to FMN in the bi-bi ordered kinetic mechanism reported for hFADSs. Nonetheless, features for this fluorescence decay also differ between WT and D238A hFADSs (Figure 8a). […] The first exponential decay has observed rate constants (kobs1) in the low seconds range which depend linearly on the FMN concentration, while its amplitude is concentration independent (Supplementary Figure S3a,b). kobs2 for the second exponential decay indicate a slower process nearly FMN concentration independent, with amplitude increasing with FMN concentration (Supplementary Figure S3a,b). […] The derived Kd^FMN, 0.094 ± 0.004 µM, agrees well with the above derived Km^FMN for WT hFADS6. […] Finally, the continuous and linear flavin fluorescence decay established after the exponential processes fits well with the settlement of the catalytic steady-state transformation of FMN into FAD, showing, in addition, rates in the ranges of Vmax and kcat. […] Nonetheless, fluorescence decay related to FMN transformation into FAD follows similar traits to the WT ones (Fig  Figure 8 Dissection of the kinetics of the substrates binding process from the catalytic reaction by stopped-flow spectrophotometry. Normalized kinetic traces for the flavin fluorescence evolution upon mixing the protein with substrates for the (a) forward (ATP + FMN) and (b) reverse (PPi + FAD) reactions. Traces for WT and D238A hFADS are shown in colored grey and red scales as a function of the flavin given concentrations. Normalized signals regarding the fluorescence of the forward reaction at maximum FMN concentration are shown. Kinetic traces were obtained at 25 °C in mixtures containing 100 nM of protein and 250 µM of either ATP (a) or PPi (b) in 50 mM HEPES/NaOH, 10 mM MgCl2, pH 7.0, 5 mM β-mercaptoethanol. All concentrations are final after mixing.

[6] = target: T1, hFADS6 (human FAD synthase isoform 6); assay: biochemical; set-up: Stopped-flow flavin fluorescence, FMN binding with 250 uM ATP; kon/koff from kobs1 versus flavin concentration, 25 °C, pH 7.0; settings: with 250 uM ATP
Experimental: as §2

[7] = target: T2, hFADS6 (human FAD synthase isoform 6); assay: inhibition of FADS activity; type: biochemical; settings: inhibitor

T2 sequence (Q8NFF5 268-587 D505A): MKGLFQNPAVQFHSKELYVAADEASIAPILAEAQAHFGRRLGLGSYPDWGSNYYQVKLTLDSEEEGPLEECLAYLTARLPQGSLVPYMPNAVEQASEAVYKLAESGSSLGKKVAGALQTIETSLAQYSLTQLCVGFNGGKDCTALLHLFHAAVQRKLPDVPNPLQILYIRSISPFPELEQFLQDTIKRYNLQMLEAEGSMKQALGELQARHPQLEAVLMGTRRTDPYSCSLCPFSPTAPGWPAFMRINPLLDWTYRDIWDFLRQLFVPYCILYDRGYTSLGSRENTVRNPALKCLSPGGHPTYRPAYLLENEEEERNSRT
T1 sequence (Q8NFF5 268-587): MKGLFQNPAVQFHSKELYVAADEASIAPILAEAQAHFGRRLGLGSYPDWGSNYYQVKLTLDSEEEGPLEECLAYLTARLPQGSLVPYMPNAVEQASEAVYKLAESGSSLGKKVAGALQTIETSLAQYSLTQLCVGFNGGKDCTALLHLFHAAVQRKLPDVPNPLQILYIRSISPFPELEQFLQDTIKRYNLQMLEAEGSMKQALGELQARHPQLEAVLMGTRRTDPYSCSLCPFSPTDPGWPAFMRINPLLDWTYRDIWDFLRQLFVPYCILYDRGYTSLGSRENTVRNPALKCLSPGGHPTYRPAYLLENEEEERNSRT

Kd ([1]; read-out: Kd): 180 ± 40 nM
koff ([2]; read-out: koff (FAD binding)): 0.35 s⁻¹
kon ([2]; read-out: kon (FAD binding)): 1.5e+06 M⁻¹ s⁻¹
koff ([3]; read-out: koff (FAD binding)): 0.81 ± 0.05 s⁻¹
kon ([3]; read-out: kon (FAD binding)): 4.5e+06 ± 600000 M⁻¹ s⁻¹
Kd [4]: > 300 nM
Structure (SMILES): Cc1cc2nc3c(=O)[nH]c(=O)nc-3n(C[C@H](O)[C@H](O)[C@H](O)COP(=O)(O)OP(=O)(O)OC[C@H]3O[C@@H](n4cnc5c(N)ncnc54)[C@H](O)[C@@H]3O)c2cc1C [FAD]

Kd ([1]; read-out: Kd^FMN): 94 ± 4 nM
Kd ([5]; koff/kon, read-out: Kd FMN): > 180 nM
koff ([5]; read-out: koff (FMN binding)): 0.09 s⁻¹
kon ([5]; read-out: kon (FMN binding)): 550000 M⁻¹ s⁻¹
koff ([6]; read-out: koff (FMN binding)): 0.32 ± 0.01 s⁻¹
kon ([6]; read-out: kon (FMN binding)): 3.4e+06 ± 100000 M⁻¹ s⁻¹
Structure (SMILES): Cc1cc2nc3c(=O)[nH]c(=O)nc-3n(C[C@H](O)[C@H](O)[C@H](O)COP(=O)(O)O)c2cc1C [FMN]

Structure (SMILES): Nc1nc2c(ncn2[C@@H]2O[C@H](COP(=O)(O)OP(=O)(O)OP(=O)(O)O)[C@@H](O)[C@H]2O)c(=O)[nH]1 [GTP]
inhibition of FADS activity [7]: The D238A-hFADS6 was inhibited by GTP and by NADH

Structure (SMILES): NC(=O)C1=CN([C@@H]2O[C@H](COP(=O)(O)OP(=O)(O)OC[C@H]3O[C@@H](n4cnc5c(N)ncnc54)[C@H](O)[C@@H]3O)[C@@H](O)[C@H]2O)C=CC1 [NADH]
inhibition of FADS activity [7]: The D238A-hFADS6 was inhibited by GTP and by NADH
